Test results from PubChem BioAssay AID651581 (Sanford-Burnham Center for Chemical Genomics, 2012).
pIC50: −log10 of the molar value. The source made the active and inactive calls. How the calls were made is not given here.

Legend:
[1] = molecular target: Endothelial PAS domain-containing protein 1 (Homo sapiens) (UniProt Q99814); assay: HIF-2a and HIF-1a reporter inhibition panel, dose response, selectivity assay for HIF-2a inhibitor project, cell-based, luminescence (AID 651581)
[2] = molecular target: Hypoxia-inducible factor 1-alpha (Homo sapiens) (UniProt Q16665); assay: as above; settings: HIF-1a
Sequence of Hypoxia-inducible factor 1-alpha (Homo sapiens) (Q16665 whole entry, looked up): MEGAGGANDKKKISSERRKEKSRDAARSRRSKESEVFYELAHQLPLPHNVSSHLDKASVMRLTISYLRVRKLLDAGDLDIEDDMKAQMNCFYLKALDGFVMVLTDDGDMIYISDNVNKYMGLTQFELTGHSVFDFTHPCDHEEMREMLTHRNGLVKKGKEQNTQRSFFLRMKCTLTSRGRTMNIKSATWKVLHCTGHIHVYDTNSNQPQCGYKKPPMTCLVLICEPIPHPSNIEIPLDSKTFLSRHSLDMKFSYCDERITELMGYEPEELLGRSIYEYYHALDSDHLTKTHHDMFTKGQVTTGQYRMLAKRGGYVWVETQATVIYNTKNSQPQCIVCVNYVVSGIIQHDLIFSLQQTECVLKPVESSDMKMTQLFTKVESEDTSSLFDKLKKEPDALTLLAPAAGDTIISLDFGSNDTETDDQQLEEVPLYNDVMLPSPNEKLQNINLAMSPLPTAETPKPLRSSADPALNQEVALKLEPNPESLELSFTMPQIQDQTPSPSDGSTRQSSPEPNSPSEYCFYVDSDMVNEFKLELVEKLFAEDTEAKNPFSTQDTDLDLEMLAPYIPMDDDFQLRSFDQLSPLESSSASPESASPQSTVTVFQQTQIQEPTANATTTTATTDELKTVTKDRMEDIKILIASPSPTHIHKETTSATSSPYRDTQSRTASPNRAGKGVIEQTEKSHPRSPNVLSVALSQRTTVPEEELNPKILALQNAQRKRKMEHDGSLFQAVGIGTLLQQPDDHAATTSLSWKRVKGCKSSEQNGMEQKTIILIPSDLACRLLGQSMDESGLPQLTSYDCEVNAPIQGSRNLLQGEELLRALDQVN

| Structure (SMILES) | pIC50 ([1]; HIF-2a PANC, mean of runs) | pIC50 ([1]; HIF-2a PANC, run 1) | pIC50 ([1]; HIF-2a PANC, run 2) | pIC50 ([1]; HIF-2a, mean of runs) | pIC50 ([1]; HIF-2a, run 1) | pIC50 ([1]; HIF-2a, run 2) | IC50 ([2]; mean of runs) | pIC50 ([2]; run 1) | pIC50 ([2]; run 2) | pIC50 ([2]; mean of runs) | IC50 ([1]; HIF-2a PANC, mean of runs) | IC50 ([1]; HIF-2a, mean of runs) |
| --- | --- | --- | --- | --- | --- | --- | --- | --- | --- | --- | --- | --- |
| CSC(SC)=C(C#N)C(=O)c1ccccc1 | – | < 4.00 | 4.11 | 5.21 | 5.18 | 5.24 | – | 4.67 | 4.51 | 4.58 | – | – |
| CCOC(=O)Cc1csc(NC(=S)NC(=O)c2ccc(F)cc2)n1 | – | < 4.00 | 4.87 | 5.71 | 5.72 | 5.70 | – | 4.87 | 4.91 | 4.89 | – | – |
| COc1ccc(CNC(=O)CCc2c(C)nc3cc(-c4ccccc4OC)nn3c2C)cc1 | – | < 4.00 | 4.93 | 5.03 | 5.00 | 5.07 | inactive | 4.57 | 5.17 | – | – | – |
| O=C(O)c1cccc(-c2nc3ccccc3[nH]2)c1 | – | < 4.00 | < 4.00 | – | 4.84 | 4.81 | – | < 4.00 | < 4.00 | – | > 99 µM (inactive) | inactive |
| O=C1C=CC(=O)N1c1cccc(-c2ccccc2)c1 | – | < 4.00 | 4.23 | 5.09 | 5.10 | 5.08 | – | 4.58 | 4.44 | 4.50 | – | – |
| COc1ccc(OC)c(S(=O)(=O)ON2C(=O)c3ccccc3C2=O)c1 | – | < 4.00 | < 4.00 | 5.08 | 5.03 | 5.14 | – | < 4.00 | < 4.00 | – | > 99 µM (inactive) | – |
| O=C(Nc1sc2c(c1C(=O)O)CCC2)c1ccccc1Cl | – | < 4.00 | 4.30 | – | < 4.00 | < 4.00 | – | 4.07 | < 4.00 | – | – | > 99 µM (inactive) |
| NC(=O)COC(=O)CCCSc1nc2ccccc2s1 | – | < 4.00 | 4.09 | 5.07 | 5.07 | 5.07 | inactive | 5.26 | 4.92 | – | – | – |
| N#C/C(=C\c1ccccc1)C(=O)N(c1ccccn1)C1CCCCC1 | – | 4.01 | 4.15 | – | 4.83 | 4.86 | inactive | 4.59 | 4.61 | – | inactive | inactive |
| Cc1ccc(S(=O)(=O)ON2C(=O)c3ccccc3C2=O)c(C)c1 | – | < 4.00 | 4.41 | 5.25 | 5.25 | 5.25 | – | < 4.00 | < 4.00 | – | – | – |
| O=C(Nc1ccc(N2CCOCC2)cc1)c1cnccn1 | – | 4.50 | 4.48 | 5.03 | 5.02 | 5.03 | inactive | 4.84 | 4.67 | – | inactive | – |
| Cc1cc(C(=O)Nc2cccc(C(=O)O)c2)oc1C | – | < 4.00 | < 4.00 | 5.19 | 5.17 | 5.21 | – | 4.38 | < 4.00 | – | > 99 µM (inactive) | – |
| CSc1ccc(/C=N/Nc2cccc(C(=O)O)c2)cc1 | – | < 4.00 | < 4.00 | 5.27 | 5.28 | 5.27 | – | < 4.00 | < 4.00 | – | > 99 µM (inactive) | – |
| CCOC(=O)c1cc(-c2csc(-c3ccc(C(C)(C)C)cc3)n2)on1 | – | < 4.00 | < 4.00 | 5.32 | 5.32 | 5.32 | – | 4.16 | 4.37 | 4.25 | > 99 µM (inactive) | – |
| COc1cccc(C(=O)C(C#N)=C(SC)SC)c1 | – | 4.32 | 4.32 | 5.24 | 5.23 | 5.25 | – | 4.63 | 4.88 | 4.74 | inactive | – |
| O=S(=O)(Nc1cccc2cccnc12)c1ccccc1 | – | < 4.00 | < 4.00 | 5.47 | 5.45 | 5.49 | – | < 4.00 | < 4.00 | – | > 99 µM (inactive) | – |

Stronger by pIC50 ([1]; HIF-2a PANC, run 1), values ahead:

| pIC50 ([1]; HIF-2a PANC, mean of runs) | pIC50 ([1]; HIF-2a PANC, run 1) | pIC50 ([1]; HIF-2a PANC, run 2) | pIC50 ([1]; HIF-2a, mean of runs) | pIC50 ([1]; HIF-2a, run 1) | pIC50 ([1]; HIF-2a, run 2) | IC50 ([2]; mean of runs) | pIC50 ([2]; run 1) | pIC50 ([2]; run 2) | pIC50 ([2]; mean of runs) | IC50 ([1]; HIF-2a PANC, mean of runs) | IC50 ([1]; HIF-2a, mean of runs) | Structure (SMILES) |
| --- | --- | --- | --- | --- | --- | --- | --- | --- | --- | --- | --- | --- |
| 5.54 | 5.48 | 5.61 | 5.97 | 5.98 | 5.96 | inactive | 6.56 | 6.20 | – | – | – | COC(=O)COc1ccc(-c2nccc(-c3ccccn3)n2)cc1 |
| 5.55 | 5.60 | 5.51 | 5.97 | 6.01 | 5.94 | inactive | 5.83 | 5.60 | – | – | – | S=C(c1ccc(-c2ccccc2)cc1)N1CCOCC1 |
| 5.13 | 5.14 | 5.13 | 5.20 | 5.15 | 5.24 | inactive | 4.82 | 4.98 | – | – | – | O=C(CCCSc1nc2ccccc2s1)NC1=NCCS1 |
| 5.50 | 5.42 | 5.60 | 5.85 | 5.80 | 5.91 | – | 5.14 | 5.33 | 5.22 | – | – | Cc1c(CCC(=O)N2CCC(C(=O)O)(c3ccccc3)CC2)c(=O)oc2cc3oc4c(c3cc12)CCCC4 |
| 5.58 | 5.63 | 5.53 | 5.51 | 5.55 | 5.48 | inactive | 5.91 | 4.84 | – | – | – | Cc1c(CCC(=O)NCCC(=O)O)c(=O)oc2c(C)c3oc4c(c3cc12)CCCC4 |
| – | > 6.00 | > 5.52 | 6.61 | 6.61 | 6.62 | – | > 5.00 | > 5.00 | > 5.00 | < 1 µM (inactive) | – | COC(=O)Cc1ccc(NC(=O)c2ccc(C(C)(C)C)cc2)cc1 |
| 5.89 | 5.78 | 6.03 | 5.34 | 5.33 | 5.35 | – | 4.69 | 4.47 | 4.57 | – | – | Cc1ccc(NC(=S)NNc2ncc(C(F)(F)F)cc2Cl)cc1 |
| – | 5.15 | 4.18 | 5.98 | 5.89 | 6.08 | – | 5.41 | 4.77 | 4.98 | inactive | – | Cc1nc(SCc2cccc(C(=O)O)c2)nc2c1CCCC2 |
| > 5.52 | > 5.52 | > 5.52 | > 6.00 | > 6.00 | > 6.00 | – | > 6.72 | 4.38 | – | – | – | CC(C)(C)c1ccc(-c2noc(CCC(=O)NCc3ccco3)n2)cc1 |
| > 6.72 | > 6.72 | > 5.00 | > 6.52 | > 6.52 | > 6.52 | – | < 4.00 | 5.83 | – | – | – | N#Cc1c(NC(=O)CSc2ncn[nH]2)sc2c1CCCCC2 |
| 4.92 | 4.97 | 4.87 | 5.30 | 5.29 | 5.30 | – | 4.55 | 5.12 | 4.75 | – | – | CCNC(=O)NC(=O)COC(=O)CCCSc1nc2ccccc2s1 |
| 5.01 | 5.02 | 5.00 | > 5.00 | > 5.00 | > 5.00 | – | < 4.00 | < 4.00 | – | – | – | COC(=O)c1cccc(-c2noc(-c3ccccc3F)n2)c1 |
| 4.46 | 4.53 | 4.41 | – | 4.90 | 4.92 | inactive | 4.59 | 4.61 | – | – | inactive | Cn1c(/C=C/c2ccc(Cl)cc2)c([N+](=O)[O-])c(=O)n(C)c1=O |
| – | 4.75 | < 4.00 | 5.12 | 5.13 | 5.12 | – | < 4.00 | < 4.00 | – | – | – | COC(=O)c1cccc(NC(=O)NC(=O)c2ccccc2Cl)c1 |
| – | > 4.52 | 4.34 | 5.38 | 5.37 | 5.39 | – | < 4.00 | 4.32 | – | – | – | Cn1ncc2c(O/N=C(\N)c3ccc(C(C)(C)C)cc3)ncnc21 |
| 5.10 | 5.42 | 4.92 | 5.22 | 5.19 | 5.26 | inactive | 5.07 | 4.72 | – | – | – | COCCn1c(C)cc(C(=O)CSc2nnc(C)s2)c1C |
| 5.70 | 5.64 | 5.77 | 5.05 | 5.05 | 5.04 | – | 4.48 | 4.57 | 4.52 | – | – | Cc1cccc(NC(=S)NNc2ncc(C(F)(F)F)cc2Cl)c1 |
| 5.24 | 5.60 | 5.04 | 5.20 | 5.22 | 5.18 | inactive | 5.09 | 4.68 | – | – | – | Cc1c(CCC(=O)O)c(=O)oc2cc(OCc3ccccc3Br)ccc12 |
| – | 5.09 | 4.79 | 6.05 | 6.09 | 6.01 | – | < 4.00 | < 4.00 | – | inactive | – | CCCCOC(=O)c1ccc(NC(=S)NC(=O)c2c(Br)c(C)nn2C)cc1 |
| 4.72 | 4.55 | 5.01 | 5.17 | 5.16 | 5.18 | – | 4.24 | 4.26 | 4.25 | – | – | O=C(c1ccccc1)N1CCSc2sccc2C1=O |
